Literature values as cited in patent US20260042735A1, “BENZYLTRYPTAMINE COMPOUNDS” (priority 2021, published 2026).

How the values were obtained:
[1] = test system: dopamine receptors; conditions: cited from earlier work
[2] = molecular target: SERT (Homo sapiens (Human), UniProt P31645); conditions: cited from earlier work
[3] = molecular target: 5-HT1D (Homo sapiens (Human), UniProt P28221); conditions: cited from earlier work
[4] = molecular target: 5-HT7 (Homo sapiens (Human), UniProt P34969); conditions: cited from earlier work
[5] = molecular target: 5-HT5 (Homo sapiens (Human), UniProt P47898); conditions: cited from earlier work
[6] = molecular target: 5-HT3 (Homo sapiens (Human), UniProt P46098); conditions: read-out: Ki 5-HT3; cited from earlier work
[7] = molecular target: 5-HT1B (Homo sapiens (Human), UniProt P28222); conditions: cited from earlier work
[8] = molecular target: 5-HT6 (Homo sapiens (Human), UniProt P50406); conditions: cited from earlier work
[9] = molecular target: 5HT2C receptor (Homo sapiens, UniProt P28335); conditions: cited from earlier work
[10] = molecular target: T1, 5HT2B receptor (Homo sapiens, UniProt P41595); conditions: cited from earlier work
[11] = test system: mouse head twitch; conditions: much lower potency relative to psilocin; cited from earlier work
[12] = molecular target: human 5-HT2A receptor (Homo sapiens (Human), UniProt P28223); conditions: cited from earlier work
[13] = molecular target: T1, 5HT2B receptor; conditions: cited from earlier work; remark: listed apart in the source
[14] = test system: mouse OCD model; conditions: cited from earlier work

T1 sequence (P41595 whole entry, looked up): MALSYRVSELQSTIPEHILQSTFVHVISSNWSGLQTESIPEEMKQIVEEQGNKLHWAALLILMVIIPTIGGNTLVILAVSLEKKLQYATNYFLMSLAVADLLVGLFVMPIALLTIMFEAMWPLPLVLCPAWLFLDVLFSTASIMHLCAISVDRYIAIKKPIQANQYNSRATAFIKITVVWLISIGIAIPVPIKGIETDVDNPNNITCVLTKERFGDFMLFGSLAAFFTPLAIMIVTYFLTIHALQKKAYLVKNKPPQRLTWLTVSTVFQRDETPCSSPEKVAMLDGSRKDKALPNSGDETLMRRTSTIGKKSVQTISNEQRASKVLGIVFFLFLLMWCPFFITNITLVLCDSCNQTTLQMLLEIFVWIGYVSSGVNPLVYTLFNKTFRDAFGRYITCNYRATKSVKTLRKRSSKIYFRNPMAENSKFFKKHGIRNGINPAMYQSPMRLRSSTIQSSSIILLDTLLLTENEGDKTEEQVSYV
Chain of 5HT2C receptor (P28335 33-458 limits assumed): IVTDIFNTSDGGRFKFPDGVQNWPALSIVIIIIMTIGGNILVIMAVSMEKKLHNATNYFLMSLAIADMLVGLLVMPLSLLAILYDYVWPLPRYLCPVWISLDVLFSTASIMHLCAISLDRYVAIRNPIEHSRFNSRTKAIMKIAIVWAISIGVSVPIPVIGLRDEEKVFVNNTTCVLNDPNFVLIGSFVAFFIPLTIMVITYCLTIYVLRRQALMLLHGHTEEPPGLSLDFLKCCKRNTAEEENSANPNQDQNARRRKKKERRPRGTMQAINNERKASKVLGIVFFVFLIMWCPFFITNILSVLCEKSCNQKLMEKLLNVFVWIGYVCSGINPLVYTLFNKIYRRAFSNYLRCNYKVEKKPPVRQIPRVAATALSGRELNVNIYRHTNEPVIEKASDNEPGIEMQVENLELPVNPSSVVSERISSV
Chain of 5-HT6 (P50406 whole entry, looked up, species assumed): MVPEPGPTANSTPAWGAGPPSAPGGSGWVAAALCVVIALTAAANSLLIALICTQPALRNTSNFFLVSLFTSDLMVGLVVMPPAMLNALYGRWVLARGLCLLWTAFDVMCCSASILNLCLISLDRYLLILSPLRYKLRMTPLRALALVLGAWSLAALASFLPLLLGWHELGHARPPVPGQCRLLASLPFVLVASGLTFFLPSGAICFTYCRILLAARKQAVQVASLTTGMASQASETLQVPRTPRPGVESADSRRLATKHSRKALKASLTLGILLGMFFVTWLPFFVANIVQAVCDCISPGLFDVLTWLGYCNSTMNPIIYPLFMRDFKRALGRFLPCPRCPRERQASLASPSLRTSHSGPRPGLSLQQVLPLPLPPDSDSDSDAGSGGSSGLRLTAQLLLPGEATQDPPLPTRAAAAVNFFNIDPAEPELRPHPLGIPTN
Chain of 5-HT3 (P46098 whole entry, looked up, species assumed): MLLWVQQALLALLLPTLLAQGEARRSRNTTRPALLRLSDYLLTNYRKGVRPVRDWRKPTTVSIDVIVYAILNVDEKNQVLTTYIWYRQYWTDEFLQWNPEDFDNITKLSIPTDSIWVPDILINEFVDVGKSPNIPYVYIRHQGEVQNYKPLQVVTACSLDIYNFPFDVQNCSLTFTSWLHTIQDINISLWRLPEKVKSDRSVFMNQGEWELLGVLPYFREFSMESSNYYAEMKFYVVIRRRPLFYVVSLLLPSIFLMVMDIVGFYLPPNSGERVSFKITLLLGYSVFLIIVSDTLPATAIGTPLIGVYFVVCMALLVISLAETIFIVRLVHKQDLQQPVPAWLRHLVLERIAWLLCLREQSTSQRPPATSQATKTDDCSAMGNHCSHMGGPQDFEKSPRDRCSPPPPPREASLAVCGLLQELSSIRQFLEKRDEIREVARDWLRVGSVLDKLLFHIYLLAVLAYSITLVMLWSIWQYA
Chain of 5-HT1B (P28222 whole entry, looked up, species assumed): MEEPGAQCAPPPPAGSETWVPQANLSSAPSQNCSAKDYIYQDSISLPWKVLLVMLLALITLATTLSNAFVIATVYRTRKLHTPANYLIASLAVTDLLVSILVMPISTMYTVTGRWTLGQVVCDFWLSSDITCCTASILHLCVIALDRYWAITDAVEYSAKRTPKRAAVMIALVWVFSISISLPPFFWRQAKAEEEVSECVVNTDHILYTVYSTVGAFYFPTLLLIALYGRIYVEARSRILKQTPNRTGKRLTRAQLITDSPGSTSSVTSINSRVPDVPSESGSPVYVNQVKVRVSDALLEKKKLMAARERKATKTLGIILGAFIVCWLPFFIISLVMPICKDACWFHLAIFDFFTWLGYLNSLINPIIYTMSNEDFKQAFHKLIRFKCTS
Chain of 5-HT1D (P28221 whole entry, looked up, species assumed): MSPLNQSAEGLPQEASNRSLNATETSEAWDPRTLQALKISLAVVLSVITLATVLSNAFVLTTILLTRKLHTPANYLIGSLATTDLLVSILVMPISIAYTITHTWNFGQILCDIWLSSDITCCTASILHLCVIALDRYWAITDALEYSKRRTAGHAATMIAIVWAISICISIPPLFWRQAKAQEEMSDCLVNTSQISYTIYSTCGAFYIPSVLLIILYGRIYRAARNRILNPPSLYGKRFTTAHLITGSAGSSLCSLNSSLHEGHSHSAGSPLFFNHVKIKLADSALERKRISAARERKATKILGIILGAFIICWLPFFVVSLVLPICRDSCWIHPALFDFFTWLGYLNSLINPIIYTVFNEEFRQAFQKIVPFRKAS
Chain of 5-HT7 (P34969 whole entry, looked up, species assumed): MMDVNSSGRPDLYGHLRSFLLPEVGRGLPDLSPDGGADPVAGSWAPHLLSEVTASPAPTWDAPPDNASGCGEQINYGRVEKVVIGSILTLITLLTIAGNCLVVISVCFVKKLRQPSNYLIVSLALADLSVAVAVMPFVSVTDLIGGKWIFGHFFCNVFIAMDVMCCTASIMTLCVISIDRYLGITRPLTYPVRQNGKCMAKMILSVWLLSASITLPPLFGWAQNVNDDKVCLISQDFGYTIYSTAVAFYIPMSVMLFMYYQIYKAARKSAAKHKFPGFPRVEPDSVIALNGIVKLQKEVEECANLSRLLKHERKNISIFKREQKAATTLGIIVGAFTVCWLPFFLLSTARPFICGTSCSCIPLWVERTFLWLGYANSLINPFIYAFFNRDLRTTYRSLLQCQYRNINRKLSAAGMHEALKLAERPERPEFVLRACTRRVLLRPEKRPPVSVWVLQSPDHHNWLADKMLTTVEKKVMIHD
Chain of 5-HT5 (P47898 whole entry, looked up, species assumed): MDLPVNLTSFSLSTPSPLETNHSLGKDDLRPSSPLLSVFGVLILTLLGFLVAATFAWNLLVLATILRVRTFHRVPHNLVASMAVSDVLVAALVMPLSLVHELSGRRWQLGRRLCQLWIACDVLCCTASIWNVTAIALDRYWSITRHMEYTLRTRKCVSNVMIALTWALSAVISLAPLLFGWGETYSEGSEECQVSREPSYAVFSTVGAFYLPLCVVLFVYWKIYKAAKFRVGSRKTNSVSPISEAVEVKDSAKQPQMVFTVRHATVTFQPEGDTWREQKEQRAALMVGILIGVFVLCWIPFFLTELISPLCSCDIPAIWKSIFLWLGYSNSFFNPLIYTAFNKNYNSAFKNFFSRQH

SMILES	Effect on dopamine receptors [1]	Ki [2]	Ki [3]	Ki [4]	Ki [5]	Ki [6]	Ki [7]	Ki [8]	EC50 ([9]; phosphoinositol hydrolysis, read-out: Agonist potency at human 5-HT2C receptor)	Functional efficacy response vs serotonin, 5-HT2C ([9]; serotonin set at 100%)	Antagonist potency at 5-HT2B receptors [10]	Efficacy in mouse head twitch assay [11]	Functional efficacy response vs serotonin, 5-HT2A [12]	EC50 ([12]; phosphoinositol hydrolysis, read-out: Agonist potency at human 5-HT2A receptor)	Agonist activity at 5-HT2B receptors [13]	Efficacy in mouse OCD model [14]
CN(C)CCc1c[nH]c2cccc(O)c12 [Psilocin, psilocin]	no significant effect	3.8 µM	0.036 µM	0.0035 µM	0.084 µM	> 10 µM	0.219 µM	0.057 µM	–	–	–	–	–	–	–	–
CN(C)CCc1cn(C)c2cccc(O)c12 [compound 1]	–	–	–	–	–	–	–	–	0.012 µM	ca. 45%	0.038 µM	efficacious	ca. 30%	0.633 µM	inactive	efficacy in a mouse OCD model demonstrated
